Some test systems named below: U-251; HL-60; HCC 2998; 786-0; IGROV-1; A549; HCT-15; COLO 205; SF-268; SF-295; NCI-H226; LOX IMVI; EKVX; UACC-257; HOP-92; OVCAR-3.
Common to all, as to assay: growth of human tumour cells (NCI), 48 h

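Growth conditions: 96-well plates. Treatment: test compound, 48 hours, 5 concentrations. Analysis: linear interpolation between bracketing concentrations; unreached endpoints set to highest concentration. Here, GI50 denotes the concentration required for 50% inhibition of growth.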 The source made the active and inactive calls. Cut-off read from the data, not from the text of the source: active = GI50 up to about 1.1 µM and inactive = higher.

With `COc1ccc(S(=O)(=O)NNS(C)(=O)=O)cc1`, the GI50 with U-251, with HL-60, in the test with HCC 2998, in the test on 786-0, with IGROV-1 and with A549 was > 100 µM (inactive) in each case. In addition, the GI50 in the test with HCT-15 is over 10 µM; in the test on COLO 205, > 100 µM (inactive); in the test on SF-268, > 100 µM (inactive); in the test on SF-295 it was > 100 µM (inactive); in the test on NCI-H226, > 100 µM (inactive); with LOX IMVI it was > 100 µM (inactive). In addition, the GI50 with EKVX and in the test on UACC-257 was > 100 µM (inactive) each time.

Take `Cc1cccc(C)c1NC(=O)C(=O)CC(=O)c1cccc([N+](=O)[O-])c1`: the GI50 in the test on U-251, with HL-60, with 786-0, with IGROV-1, in the test on HOP-92 and in the test on A549 was > 100 µM (inactive) each time. Further, the GI50 in the test with OVCAR-3 is > 100 µM (inactive); with HCT-15, over 100 µM; in the test on COLO 205 it was > 100 µM (inactive); in the test with SF-268, > 100 µM (inactive); in the test with SF-295, > 100 µM (inactive); in the test on NCI-H226, > 100 µM (inactive). Moreover, the GI50 in the test with EKVX and in the test on UACC-257 was > 100 µM (inactive) each time.

Regarding `CN(C)CCC(CCN(C)C)=NOC(=O)c1ccccc1`, the GI50 in the test with U-251, in the test with HL-60, in the test with HCC 2998, in the test on 786-0, in the test on IGROV-1 and in the test on A549 was > 100 µM (inactive) throughout. The GI50 is > 100 µM (inactive) with OVCAR-3; over 100 µM in the test with HCT-15; > 100 µM (inactive) in the test with COLO 205; > 100 µM (inactive) in the test with SF-268; > 100 µM (inactive) in the test on SF-295; > 100 µM (inactive) with EKVX. Besides, the GI50 in the test with UACC-257 is > 100 µM (inactive).

Turning to `Cc1ccc(S(=O)(=O)c2ccc(NC(=O)SCCC(=O)O)cc2)cc1`, the GI50 in the test on U-251 was > 100 µM (inactive); in the test with HL-60 it was > 100 µM (inactive); in the test with HCC 2998 it was > 100 µM (inactive); in the test with 786-0, > 100 µM (inactive); in the test on IGROV-1 it was 5.14 µM (inactive); in the test on A549, > 100 µM (inactive). For the same compound, the GI50 is > 100 µM (inactive) in the test on OVCAR-3; over 100 µM in the test with HCT-15; > 100 µM (inactive) in the test on COLO 205; > 100 µM (inactive) with SF-268; > 100 µM (inactive) in the test with SF-295; > 100 µM (inactive) in the test on NCI-H226. Moreover, the GI50 in the test on LOX IMVI, with EKVX and with UACC-257 was > 100 µM (inactive) each time.

Consider `Cc1ccc(C)c(NC(=O)CCc2nnc(S)[nH]2)c1`, for which the GI50 was > 100 µM (inactive) with U-251; > 100 µM (inactive) with HCC 2998; > 100 µM (inactive) in the test with 786-0; 86.7 µM (inactive) in the test on IGROV-1; > 100 µM (inactive) in the test on HOP-92; > 100 µM (inactive) in the test on A549. Besides, the GI50 is > 100 µM (inactive) in the test on OVCAR-3; 44.2 µM in the test with HCT-15; > 100 µM (inactive) in the test on COLO 205; > 100 µM (inactive) with SF-268; > 100 µM (inactive) in the test on SF-295; > 100 µM (inactive) in the test on NCI-H226. The GI50 in the test on LOX IMVI, with EKVX and with UACC-257 was > 100 µM (inactive) each time.

Consider `CN(C)C(c1ccccc1)C(O)c1ccccc1` (stereo not drawn), for which the GI50 in the test with U-251, with HL-60, in the test on HCC 2998, with 786-0, with IGROV-1 and with A549 was > 100 µM (inactive) throughout. In addition, the GI50 is > 100 µM (inactive) with OVCAR-3; over 100 µM in the test with HCT-15; > 100 µM (inactive) in the test on COLO 205; > 100 µM (inactive) with SF-268; > 100 µM (inactive) in the test with SF-295; > 100 µM (inactive) in the test with NCI-H226. The GI50 in the test with LOX IMVI, in the test with EKVX and with UACC-257 was > 100 µM (inactive) in each case.

In the case of `COc1ccc(C2c3cc4c(cc3OC(O)(CO)C2C(=O)O)OCO4)c(OC)c1OC.COc1ccc(C2c3cc4c(cc3OC3(O)COC(=O)C23)OCO4)c(OC)c1OC` (stereo not drawn), the GI50 with U-251 was > 100 µM (inactive); in the test on HL-60, 45 µM (inactive); with 786-0, > 100 µM (inactive); with IGROV-1, > 100 µM (inactive); in the test with HOP-92, 29.2 µM (inactive); in the test on A549, > 100 µM (inactive). In addition, the GI50 with OVCAR-3 is > 100 µM (inactive); in the test with HCT-15 it was over 100 µM; in the test on COLO 205, > 100 µM (inactive); in the test on SF-295 it was > 100 µM (inactive); with LOX IMVI, > 100 µM (inactive); with EKVX it was > 100 µM (inactive). Also, the GI50 with UACC-257 is > 100 µM (inactive).

For `CCOC(=O)C1=C(C(=O)OCC)C2c3ccccc3C=CN2C(C(=O)OCC)=C(SC)S1` (stereo not drawn), the GI50 with U-251 was 50.7 µM (inactive); in the test on HL-60, 25.9 µM (inactive); with HCC 2998, > 100 µM (inactive); in the test on 786-0, > 100 µM (inactive); with IGROV-1 it was > 100 µM (inactive); with A549 it was 47.6 µM (inactive). Moreover, the GI50 in the test with OVCAR-3 is 96.2 µM (inactive); in the test with HCT-15 it was 79.8 µM; in the test with COLO 205 it was 91.6 µM (inactive); with SF-268, > 100 µM (inactive); in the test with SF-295, > 100 µM (inactive); with NCI-H226, > 100 µM (inactive). The GI50 was 97.3 µM (inactive) in the test with LOX IMVI, > 100 µM (inactive) in the test on EKVX and 42.5 µM (inactive) with UACC-257.

Turning to `CSc1nc(-c2ccccc2)nc(N2CCOCC2)[s+]1`, the GI50 is 92.7 µM (inactive) with U-251; 42.8 µM (inactive) in the test on HL-60; > 100 µM (inactive) in the test on HCC 2998; > 100 µM (inactive) in the test on 786-0; > 100 µM (inactive) in the test with IGROV-1; > 100 µM (inactive) in the test with A549. Moreover, the GI50 is > 100 µM (inactive) with OVCAR-3; 37.8 µM in the test on HCT-15; 37 µM (inactive) with COLO 205; > 100 µM (inactive) with SF-268; > 100 µM (inactive) in the test with NCI-H226; 43 µM (inactive) in the test with LOX IMVI. Also, the GI50 with EKVX was > 100 µM (inactive).

For the compound `CC(=O)Nc1ccc(-c2nnc(SCC(=O)Nc3ccc(C)cc3)o2)cc1`, the GI50 in the test on U-251 is 19.4 µM (inactive); with HL-60, 27.8 µM (inactive); with 786-0, 17 µM (inactive); with IGROV-1, 12.9 µM (inactive); in the test with HOP-92, 18.4 µM (inactive); with A549 it was 40.3 µM (inactive). For the same compound, the GI50 in the test with OVCAR-3 was 22.4 µM (inactive); in the test on HCT-15, 16.2 µM; in the test on COLO 205, 17.7 µM (inactive); in the test on SF-268 it was 20.1 µM (inactive); in the test with SF-295, 16.6 µM (inactive); in the test on NCI-H226, 27.5 µM (inactive). For the same compound, the GI50 was 15.2 µM (inactive) in the test with LOX IMVI and 20.3 µM (inactive) in the test with UACC-257.

As to `COc1ccc(CC(=O)c2cc(OC)c(OC)cc2C)cc1OC`, the GI50 in the test on U-251 is > 100 µM (inactive); in the test with HCC 2998 it was > 100 µM (inactive); in the test on 786-0 it was > 100 µM (inactive); in the test with IGROV-1 it was 14 µM (inactive); with A549, 71.6 µM (inactive); in the test with OVCAR-3, 77.6 µM (inactive). The GI50 was 46.5 µM in the test with HCT-15; > 100 µM (inactive) in the test with COLO 205; 89.3 µM (inactive) in the test with SF-268; 57.4 µM (inactive) in the test with SF-295; 63 µM (inactive) with EKVX; 21.3 µM (inactive) in the test on UACC-257.

For the compound `Cc1cccc2[n+]1[C@H]1[C@H]([C@@H]3O[C@H]1c1ccccc13)[S+]([O-])N2` (stereo partly drawn), the GI50 with U-251 is 43.8 µM (inactive); in the test on HL-60, 24.4 µM (inactive); with HCC 2998, 72.8 µM (inactive); in the test on 786-0, > 100 µM (inactive); in the test on IGROV-1, 32.3 µM (inactive); in the test with HOP-92, 11.9 µM (inactive). For the same compound, the GI50 in the test with A549 is 63.2 µM (inactive); in the test on OVCAR-3, 35.9 µM (inactive); in the test with COLO 205, 61.1 µM (inactive); in the test on SF-268, 41.1 µM (inactive); in the test on SF-295, 59.8 µM (inactive); with LOX IMVI, 25.9 µM (inactive). In addition, the GI50 in the test with EKVX was 44.4 µM (inactive); in the test with UACC-257 it was 32.5 µM (inactive).

Consider `Cc1ns/c(=N\C(=S)N(C)C)n1C`, for which the GI50 with U-251, in the test on HL-60, with HCC 2998, in the test with 786-0, with IGROV-1 and in the test on HOP-92 was > 100 µM (inactive) throughout. Also, the GI50 in the test on A549 was > 100 µM (inactive); with HCT-15, over 100 µM; in the test on SF-268 it was > 100 µM (inactive); with SF-295, > 100 µM (inactive); in the test on NCI-H226, > 100 µM (inactive); in the test with EKVX it was > 100 µM (inactive). Also, the GI50 with UACC-257 was > 100 µM (inactive).

For the compound `CCN(CC)c1ccc(/N=C2/C=CC(=C(C#N)C#N)c3ccccc32)c(C)c1`, the GI50 with U-251 is 1.56 µM (inactive); with HL-60, 1.26 µM (inactive); in the test on 786-0, 2.22 µM (inactive); in the test on IGROV-1 it was 2.73 µM (inactive); in the test on HOP-92 it was 0.324 µM (active); in the test with A549, 2.18 µM (inactive). Besides, the GI50 in the test on OVCAR-3 is 1.86 µM (inactive); with HCT-15, 2.15 µM; in the test on COLO 205, 2.64 µM (inactive); in the test with SF-295 it was 2.28 µM (inactive); in the test on LOX IMVI, 1.72 µM (inactive); with EKVX, 3.21 µM (inactive). Moreover, the GI50 in the test with UACC-257 was 2.16 µM (inactive).

The values are drawn from ChEMBL document CHEMBL1201862, “PubChem BioAssay data set” (2004).
